{"source": "ChEMBL document CHEMBL4024706", "about": "(Eur J Med Chem, 2017)", "key": {"[1]": {"experiment": "MRT (0 to t) in Sprague-Dawley rat at 1 mg/kg, iv by LC-MS/MS method", "assay_type": "ADME, organism-based", "details": "in vivo"}, "[2]": {"target": "Tyrosine-protein kinase ABL2 (Homo sapiens) (UniProt P42684)", "experiment": "Inhibition of wild-type human ABL2 (A248 to G542 residues) expressed in bacterial expression system assessed as residual activity at 1 uM by Kinomescan method relative to control"}, "[3]": {"target": "Activin receptor type-2A (Homo sapiens) (UniProt P27037)", "experiment": "Inhibition of wild-type human ACVR2A (V171 to T499 residues) expressed in bacterial expression system assessed as residual activity at 1 uM by Kinomescan method relative to control"}, "[4]": {"system": "ALK tyrosine kinase receptor (Homo sapiens), Q9UM73 [L1196M]", "experiment": "Inhibition of […] human partial length ALK L1196M mutant (I1088 to E1409 residues) expressed in mammalian expression system assessed as residual activity at 1 uM by Kinomescan method relative to control"}, "[5]": {"target": "Bone morphogenetic protein receptor type-1B (Homo sapiens) (UniProt O00238)", "sequence (O00238 whole entry, the tested form may be a part)": "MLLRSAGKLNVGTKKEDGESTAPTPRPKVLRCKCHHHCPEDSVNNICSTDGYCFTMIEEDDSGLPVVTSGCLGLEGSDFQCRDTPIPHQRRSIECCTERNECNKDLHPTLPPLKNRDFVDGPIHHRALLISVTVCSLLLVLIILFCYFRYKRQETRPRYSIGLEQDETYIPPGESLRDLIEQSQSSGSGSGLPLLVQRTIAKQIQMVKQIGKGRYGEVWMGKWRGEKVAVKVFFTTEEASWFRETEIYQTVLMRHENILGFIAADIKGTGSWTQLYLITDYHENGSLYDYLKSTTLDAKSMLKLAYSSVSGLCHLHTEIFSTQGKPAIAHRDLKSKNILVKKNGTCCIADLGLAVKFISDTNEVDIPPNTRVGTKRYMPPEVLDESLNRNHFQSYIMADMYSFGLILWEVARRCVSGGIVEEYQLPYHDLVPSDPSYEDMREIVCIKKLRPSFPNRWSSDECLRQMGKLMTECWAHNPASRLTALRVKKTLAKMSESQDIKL", "experiment": "Inhibition of wild-type human partial length BMPR1B (D178 to L502 residues) expressed in mammalian expression system assessed as residual activity at 1 uM by Kinomescan method relative to control"}, "[6]": {"target": "Calcium/calmodulin-dependent protein kinase type 1B (Homo sapiens) (UniProt Q6P2M8)", "experiment": "Inhibition of wild-type human partial length CAMK1B (W9 to A311 residues) expressed in mammalian expression system assessed as residual activity at 1 uM by Kinomescan method relative to control"}, "[7]": {"target": "Dual specificity protein kinase CLK3 (Homo sapiens) (UniProt P49761)", "sequence (P49761 whole entry, looked up, the tested form may be a part)": "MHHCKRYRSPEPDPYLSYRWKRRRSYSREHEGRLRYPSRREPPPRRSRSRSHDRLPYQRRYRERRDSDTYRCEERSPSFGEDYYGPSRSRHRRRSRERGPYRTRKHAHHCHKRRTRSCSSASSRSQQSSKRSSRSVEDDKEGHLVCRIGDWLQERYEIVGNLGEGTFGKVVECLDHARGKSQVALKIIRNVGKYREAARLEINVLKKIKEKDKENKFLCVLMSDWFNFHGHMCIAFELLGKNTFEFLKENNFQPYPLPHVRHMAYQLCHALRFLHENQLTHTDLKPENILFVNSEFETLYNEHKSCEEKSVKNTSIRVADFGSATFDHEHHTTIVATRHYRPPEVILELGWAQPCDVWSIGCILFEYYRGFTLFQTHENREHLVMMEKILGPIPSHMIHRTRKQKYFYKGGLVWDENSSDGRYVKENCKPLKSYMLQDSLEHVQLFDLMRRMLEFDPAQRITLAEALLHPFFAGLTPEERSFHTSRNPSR", "experiment": "Inhibition of wild-type human full length CLK3 (M1 to R490 residues) expressed in bacterial expression system assessed as residual activity at 1 uM by Kinomescan method relative to control"}, "[8]": {"target": "Macrophage colony-stimulating factor 1 receptor (Homo sapiens) (UniProt P07333)", "experiment": "Inhibition of wild-type human partial length autoinhibited CSF1R (Y538 to S939 residues) expressed in mammalian expression system assessed as residual activity at 1 uM by Kinomescan method relative to control"}, "[9]": {"target": "Death-associated protein kinase 1 (Homo sapiens) (UniProt P53355)", "experiment": "Inhibition of wild-type human partial length DAPK1 (M1 to F296 residues) expressed in bacterial expression system assessed as residual activity at 1 uM by Kinomescan method relative to control"}, "[10]": {"target": "Eukaryotic translation initiation factor 2-alpha kinase 1 (Homo sapiens) (UniProt Q9BQI3)", "sequence (Q9BQI3 whole entry, the tested form may be a part)": "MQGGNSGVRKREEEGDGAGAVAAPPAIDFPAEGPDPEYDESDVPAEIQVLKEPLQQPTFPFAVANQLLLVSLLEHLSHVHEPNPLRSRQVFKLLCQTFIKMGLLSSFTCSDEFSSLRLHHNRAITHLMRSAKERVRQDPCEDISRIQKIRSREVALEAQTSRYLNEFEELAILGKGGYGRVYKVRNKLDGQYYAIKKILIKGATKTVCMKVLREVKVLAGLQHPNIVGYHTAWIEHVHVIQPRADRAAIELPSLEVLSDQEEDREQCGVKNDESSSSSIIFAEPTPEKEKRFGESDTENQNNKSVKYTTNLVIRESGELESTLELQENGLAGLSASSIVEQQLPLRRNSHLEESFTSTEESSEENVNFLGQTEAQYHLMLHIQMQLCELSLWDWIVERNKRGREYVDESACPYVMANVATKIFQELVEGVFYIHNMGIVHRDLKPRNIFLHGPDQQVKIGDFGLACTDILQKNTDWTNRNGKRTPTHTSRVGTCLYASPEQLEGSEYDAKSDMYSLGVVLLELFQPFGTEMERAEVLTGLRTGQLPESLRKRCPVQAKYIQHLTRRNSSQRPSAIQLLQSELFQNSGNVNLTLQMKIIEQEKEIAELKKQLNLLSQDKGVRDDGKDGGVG", "experiment": "Inhibition of wild-type human partial length EIF2AK1 (Q147 to E603 residues) expressed in mammalian expression system assessed as residual activity at 1 uM by Kinomescan method relative to control"}, "[11]": {"target": "Ephrin type-B receptor 1 (Homo sapiens) (UniProt P54762)", "experiment": "Inhibition of wild-type human partial length EPHB1 (P589 to T911 residues) expressed in bacterial expression system assessed as residual activity at 1 uM by Kinomescan method relative to control"}, "[12]": {"target": "Fibroblast growth factor receptor 1 (Homo sapiens) (UniProt P11362)", "sequence (P11362 22-822 limits assumed)": "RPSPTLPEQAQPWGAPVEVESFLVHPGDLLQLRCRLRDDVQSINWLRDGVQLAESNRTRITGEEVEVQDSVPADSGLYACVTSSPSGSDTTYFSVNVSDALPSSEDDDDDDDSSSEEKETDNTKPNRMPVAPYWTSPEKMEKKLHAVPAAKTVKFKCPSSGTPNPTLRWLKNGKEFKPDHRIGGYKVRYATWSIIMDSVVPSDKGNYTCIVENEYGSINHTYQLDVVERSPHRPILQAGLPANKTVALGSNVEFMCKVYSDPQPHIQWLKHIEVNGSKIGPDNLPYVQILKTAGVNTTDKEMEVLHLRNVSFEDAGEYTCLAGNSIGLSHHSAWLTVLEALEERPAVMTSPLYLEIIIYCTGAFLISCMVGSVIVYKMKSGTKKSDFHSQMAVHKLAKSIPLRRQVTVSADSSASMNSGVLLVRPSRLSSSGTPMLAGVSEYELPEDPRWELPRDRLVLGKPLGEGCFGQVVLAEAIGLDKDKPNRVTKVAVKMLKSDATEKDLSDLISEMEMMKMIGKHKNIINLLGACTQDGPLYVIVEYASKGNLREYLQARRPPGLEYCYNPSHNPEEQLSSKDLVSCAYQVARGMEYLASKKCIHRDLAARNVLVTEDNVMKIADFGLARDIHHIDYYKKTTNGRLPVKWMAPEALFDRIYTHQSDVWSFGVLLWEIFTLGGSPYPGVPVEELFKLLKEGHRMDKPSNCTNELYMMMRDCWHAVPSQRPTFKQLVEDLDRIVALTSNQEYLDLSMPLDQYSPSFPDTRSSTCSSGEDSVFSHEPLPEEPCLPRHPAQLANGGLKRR", "experiment": "Inhibition of wild-type human partial length FGFR1 (P357 to V669 residues) expressed in bacterial expression system assessed as residual activity at 1 uM by Kinomescan method relative to control"}, "Homo sapiens": {"species": "Homo sapiens", "experiment": "Inhibition of human partial length FLT3 ITD mutant expressed in bacterial expression system assessed as residual activity at 1 uM by Kinomescan method relative to control"}, "[13]": {"target": "Tyrosine-protein kinase JAK2 (Homo sapiens) (UniProt O60674)", "experiment": "Inhibition of wild-type human partial length JAK2 JH1 catalytic domain (A829 to G1132 residues) expressed in mammalian expression system assessed as residual activity at 1 uM by Kinomescan method relative to control"}, "[14]": {"target": "Dual specificity mitogen-activated protein kinase kinase 3 (Homo sapiens) (UniProt P46734)", "sequence (P46734 whole entry, the tested form may be a part)": "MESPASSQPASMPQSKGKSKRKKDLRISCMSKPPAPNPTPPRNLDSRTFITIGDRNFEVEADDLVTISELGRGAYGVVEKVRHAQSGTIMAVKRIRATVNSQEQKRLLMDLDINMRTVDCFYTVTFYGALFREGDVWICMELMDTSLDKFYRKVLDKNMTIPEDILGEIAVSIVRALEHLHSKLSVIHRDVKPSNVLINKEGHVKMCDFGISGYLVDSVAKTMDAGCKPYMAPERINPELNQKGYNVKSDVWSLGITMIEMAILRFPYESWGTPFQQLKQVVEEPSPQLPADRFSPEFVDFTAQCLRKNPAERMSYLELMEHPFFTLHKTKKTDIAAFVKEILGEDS", "experiment": "Inhibition of wild-type human full length MEK3 (M1 to S318 residues) expressed in mammalian expression system assessed as residual activity at 1 uM by Kinomescan method relative to control"}, "[15]": {"target": "Dual specificity mitogen-activated protein kinase kinase 6 (Homo sapiens) (UniProt P52564)", "sequence (P52564 whole entry, the tested form may be a part)": "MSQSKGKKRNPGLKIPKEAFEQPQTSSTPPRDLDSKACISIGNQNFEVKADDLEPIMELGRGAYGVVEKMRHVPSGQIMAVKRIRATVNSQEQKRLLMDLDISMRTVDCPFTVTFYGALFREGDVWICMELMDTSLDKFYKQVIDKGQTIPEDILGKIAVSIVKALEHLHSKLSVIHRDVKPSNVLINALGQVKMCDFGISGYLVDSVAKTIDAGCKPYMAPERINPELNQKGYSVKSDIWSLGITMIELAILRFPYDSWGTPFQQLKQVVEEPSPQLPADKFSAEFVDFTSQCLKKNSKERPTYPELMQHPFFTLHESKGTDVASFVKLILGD", "experiment": "Inhibition of wild-type human partial length MEK6 (K36 to D334 residues) expressed in bacterial expression system assessed as residual activity at 1 uM by Kinomescan method relative to control"}, "[16]": {"target": "Hepatocyte growth factor receptor (Homo sapiens) (UniProt P08581)", "experiment": "Inhibition of wild-type human partial length MET (D1010 to S1367 residues) expressed in bacterial expression system assessed as residual activity at 1 uM by Kinomescan method relative to control"}, "[17]": {"target": "Serine/threonine-protein kinase MRCK alpha (Homo sapiens) (UniProt Q5VT25)", "sequence (Q5VT25 whole entry, the tested form may be a part)": "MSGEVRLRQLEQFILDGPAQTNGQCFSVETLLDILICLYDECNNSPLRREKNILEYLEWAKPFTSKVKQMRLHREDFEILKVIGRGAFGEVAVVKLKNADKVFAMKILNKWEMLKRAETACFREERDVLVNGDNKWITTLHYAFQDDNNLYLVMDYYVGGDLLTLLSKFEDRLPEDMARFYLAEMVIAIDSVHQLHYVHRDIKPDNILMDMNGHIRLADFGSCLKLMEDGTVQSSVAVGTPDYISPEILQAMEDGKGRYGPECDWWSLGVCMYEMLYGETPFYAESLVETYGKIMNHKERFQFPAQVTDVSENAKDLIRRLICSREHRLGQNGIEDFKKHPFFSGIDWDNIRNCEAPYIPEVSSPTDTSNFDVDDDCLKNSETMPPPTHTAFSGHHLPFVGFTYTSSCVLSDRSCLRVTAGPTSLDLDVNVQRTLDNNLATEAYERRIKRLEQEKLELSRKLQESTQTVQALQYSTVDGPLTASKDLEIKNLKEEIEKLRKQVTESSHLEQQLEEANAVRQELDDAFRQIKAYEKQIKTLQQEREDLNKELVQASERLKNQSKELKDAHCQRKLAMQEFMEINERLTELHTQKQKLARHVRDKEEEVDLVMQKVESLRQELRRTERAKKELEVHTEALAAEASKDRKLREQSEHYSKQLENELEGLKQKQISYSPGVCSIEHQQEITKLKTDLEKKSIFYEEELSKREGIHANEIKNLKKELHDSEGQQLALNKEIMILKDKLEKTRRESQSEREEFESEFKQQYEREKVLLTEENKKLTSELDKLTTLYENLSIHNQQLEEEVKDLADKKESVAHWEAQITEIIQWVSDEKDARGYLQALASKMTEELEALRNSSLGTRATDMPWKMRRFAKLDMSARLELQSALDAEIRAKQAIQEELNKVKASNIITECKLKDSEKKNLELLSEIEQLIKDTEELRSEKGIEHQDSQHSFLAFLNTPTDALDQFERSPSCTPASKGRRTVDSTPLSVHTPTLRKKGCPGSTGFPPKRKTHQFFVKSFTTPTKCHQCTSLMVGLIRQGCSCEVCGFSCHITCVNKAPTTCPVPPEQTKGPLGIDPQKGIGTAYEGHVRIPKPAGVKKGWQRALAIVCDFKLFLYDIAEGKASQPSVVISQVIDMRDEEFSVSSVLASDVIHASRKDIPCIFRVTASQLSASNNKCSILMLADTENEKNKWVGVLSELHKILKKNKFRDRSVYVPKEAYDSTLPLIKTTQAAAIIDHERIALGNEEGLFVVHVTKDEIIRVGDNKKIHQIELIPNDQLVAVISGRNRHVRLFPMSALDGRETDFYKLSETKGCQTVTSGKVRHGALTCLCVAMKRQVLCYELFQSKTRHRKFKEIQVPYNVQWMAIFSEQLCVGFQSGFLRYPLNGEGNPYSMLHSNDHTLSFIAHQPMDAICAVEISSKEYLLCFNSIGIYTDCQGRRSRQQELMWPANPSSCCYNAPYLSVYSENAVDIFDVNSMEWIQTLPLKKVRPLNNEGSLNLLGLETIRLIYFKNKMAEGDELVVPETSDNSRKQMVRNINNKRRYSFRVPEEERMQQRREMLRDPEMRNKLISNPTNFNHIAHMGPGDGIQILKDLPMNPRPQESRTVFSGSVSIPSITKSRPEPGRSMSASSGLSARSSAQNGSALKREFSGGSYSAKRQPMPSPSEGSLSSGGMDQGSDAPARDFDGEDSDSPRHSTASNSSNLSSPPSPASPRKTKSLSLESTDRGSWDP", "experiment": "Inhibition of wild-type human partial length MRCKA (L57 to V418 residues) expressed in bacterial expression system assessed as residual activity at 1 uM by Kinomescan method relative to control"}, "[18]": {"target": "Serine/threonine-protein kinase PAK 4 (Homo sapiens) (UniProt O96013)", "experiment": "Inhibition of wild-type human partial length PAK4 (Q144 to R438 residues) expressed in bacterial expression system assessed as residual activity at 1 uM by Kinomescan method relative to control"}, "[19]": {"target": "Serine/threonine-protein kinase PLK4 (Homo sapiens) (UniProt O00444)", "experiment": "Inhibition of wild-type human partial length PLK4 (M1 to S273 residues) expressed in mammalian expression system assessed as residual activity at 1 uM by Kinomescan method relative to control"}, "[20]": {"target": "Serine/threonine-protein kinase D2 (Homo sapiens) (UniProt Q9BZL6)", "experiment": "Inhibition of wild-type human partial length PRKD2 (A519 to E838 residues) expressed in bacterial expression system assessed as residual activity at 1 uM by Kinomescan method relative to control"}, "[21]": {"target": "Serine/threonine-protein kinase PRP4 homolog (Homo sapiens) (UniProt Q13523)", "experiment": "Inhibition of wild-type human partial length PRP4 (D657 to I1007 residues) expressed in bacterial expression system assessed as residual activity at 1 uM by Kinomescan method relative to control"}, "[22]": {"target": "Ribosomal protein S6 kinase alpha-2 (Homo sapiens) (UniProt Q15349)", "experiment": "Inhibition of wild-type human partial length N-terminal RSK3 kinase domain 1 (M1 to Q385 residues) expressed in bacterial expression system assessed as residual activity at 1 uM by Kinomescan method relative to control"}, "[23]": {"target": "TGF-beta receptor type-1 (Homo sapiens) (UniProt P36897)", "experiment": "Inhibition of wild-type human partial length TGFBR1 (D179 to M503 residues) expressed in bacterial expression system assessed as residual activity at 1 uM by Kinomescan method relative to control"}, "[24]": {"target": "Testis-specific serine/threonine-protein kinase 3 (Homo sapiens) (UniProt Q96PN8)", "experiment": "Inhibition of wild-type human full length TSSK3 (M1 to T268 residues) expressed in mammalian expression system assessed as residual activity at 1 uM by Kinomescan method relative to control"}, "[25]": {"target": "Serine/threonine-protein kinase WNK1 (Homo sapiens) (UniProt Q9H4A3)", "experiment": "Inhibition of wild-type human partial length WNK1 (Q194 to A490 residues) expressed in mammalian expression system assessed as residual activity at 1 uM by Kinomescan method relative to control"}}}
{"compound": "C=CC(=O)Nc1cc(Nc2cc(-c3cccc(NC(=O)c4ccc(C(C)(C)C)cc4)c3C)cn(C)c2=O)ccc1C(=O)N1CCOCC1", "values": [{"measurement": "MRT last", "setting": "[1]", "result": 15.6, "unit": "min"}, {"measurement": "Activity", "setting": "[2]", "result": 100, "unit": "%"}, {"measurement": "Activity", "setting": "[3]", "result": 90, "unit": "%"}, {"measurement": "Activity", "setting": "[4]", "result": 96, "unit": "%"}, {"measurement": "Activity", "setting": "[5]", "result": 100, "unit": "%"}, {"measurement": "Activity", "setting": "[6]", "result": 85, "unit": "%"}, {"measurement": "Activity", "setting": "[7]", "result": 98, "unit": "%"}, {"measurement": "Activity", "setting": "[8]", "result": 100, "unit": "%"}, {"measurement": "Activity", "setting": "[9]", "result": 100, "unit": "%"}, {"measurement": "Activity", "setting": "[10]", "result": 84, "unit": "%"}, {"measurement": "Activity", "setting": "[11]", "result": 100, "unit": "%"}, {"measurement": "Activity", "setting": "[12]", "result": 94, "unit": "%"}, {"measurement": "Activity", "setting": "Homo sapiens", "result": 90, "unit": "%"}, {"measurement": "Activity", "setting": "[13]", "result": 73, "unit": "%"}, {"measurement": "Activity", "setting": "[14]", "result": 100, "unit": "%"}, {"measurement": "Activity", "setting": "[15]", "result": 100, "unit": "%"}, {"measurement": "Activity", "setting": "[16]", "result": 96, "unit": "%"}, {"measurement": "Activity", "setting": "[17]", "result": 98, "unit": "%"}, {"measurement": "Activity", "setting": "[18]", "result": 94, "unit": "%"}, {"measurement": "Activity", "setting": "[19]", "result": 99, "unit": "%"}, {"measurement": "Activity", "setting": "[20]", "result": 100, "unit": "%"}, {"measurement": "Activity", "setting": "[21]", "result": 100, "unit": "%"}, {"measurement": "Activity", "setting": "[22]", "result": 92, "unit": "%"}, {"measurement": "Activity", "setting": "[23]", "result": 93, "unit": "%"}, {"measurement": "Activity", "setting": "[24]", "result": 100, "unit": "%"}, {"measurement": "Activity", "setting": "[25]", "result": 89, "unit": "%"}]}
